For 11 compounds, TGI results are on record in PubChem BioAssay (NCI).

Some test systems named below: MDA-MB-435; RPMI-8226 leukemia; SK-OV-3 ovarian; K-562 leukemia; LOX IMVI melanoma; OVCAR-5 ovarian; UACC-257 melanoma; EKVX NSCLC; MDA-MB-231 breast; SNB-19 CNS.
Holding throughout (assay): growth of human tumour cells (NCI), 48 h

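The compound was tested at five concentrations on cells cultured in 96-well plates, with a 48-hour exposure period. At the TGI there is no net growth.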

Take `Nc1nc2cc(CNc3ccc(C(=O)NC(CCC(=O)O)C(=O)O)cc3)ccc2nc1-c1ccccc1` (stereo not given): the TGI with MDA-MB-435, with RPMI-8226 leukemia, in the experiment on SK-OV-3 ovarian, with K-562 leukemia, in the experiment with LOX IMVI melanoma and with OVCAR-5 ovarian was > 10 µM each time. In addition, the TGI in the experiment with UACC-257 melanoma, in the experiment on EKVX NSCLC, with MDA-MB-231 breast and with SNB-19 CNS was > 10 µM in each case.

For the compound `COc1cc2c(cc1Cl)n([O-])c(C#N)c(N1CCN(c3ccc([N+](=O)[O-])cc3)CC1)[n+]2=O`, the TGI in the experiment on MDA-MB-435 was > 100 µM; in the experiment on RPMI-8226 leukemia, > 100 µM; in the experiment with SK-OV-3 ovarian, > 100 µM; in the experiment on K-562 leukemia it was > 100 µM; with LOX IMVI melanoma, 73.6 µM; in the experiment with OVCAR-5 ovarian, > 100 µM. The TGI in the experiment on UACC-257 melanoma, in the experiment with EKVX NSCLC, in the experiment on MDA-MB-231 breast and in the experiment with SNB-19 CNS was > 100 µM throughout.

Take `COC(=O)c1ccccc1CC(Cc1ccccc1)C(=O)OC` (stereo not given): the TGI with MDA-MB-435, in the experiment on RPMI-8226 leukemia, in the experiment with SK-OV-3 ovarian, in the experiment on K-562 leukemia, in the experiment with LOX IMVI melanoma and in the experiment on OVCAR-5 ovarian was > 100 µM in each case. Moreover, the TGI in the experiment on UACC-257 melanoma, in the experiment with EKVX NSCLC, in the experiment on MDA-MB-231 breast and in the experiment with SNB-19 CNS was > 100 µM each time.

For `Cc1nnc2sc(N/N=C/c3ccccc3)nn12`, the TGI with MDA-MB-435 was > 100 µM; in the experiment on RPMI-8226 leukemia, > 100 µM; in the experiment on SK-OV-3 ovarian, 88.1 µM; with K-562 leukemia, > 100 µM; in the experiment with LOX IMVI melanoma it was > 100 µM; with OVCAR-5 ovarian, > 100 µM. For the same compound, the TGI in the experiment on UACC-257 melanoma, with EKVX NSCLC, in the experiment on MDA-MB-231 breast and with SNB-19 CNS was > 100 µM throughout.

With `O=C1/C(=C/c2ccco2)NC(=S)N1CN1CCOCC1`, the TGI with MDA-MB-435, in the experiment with RPMI-8226 leukemia, with SK-OV-3 ovarian, with K-562 leukemia, in the experiment with LOX IMVI melanoma and with OVCAR-5 ovarian was > 100 µM throughout. The TGI in the experiment on UACC-257 melanoma, with EKVX NSCLC, with MDA-MB-231 breast and with SNB-19 CNS was > 100 µM each time.

Regarding `CN(C)CCn1c(=O)c2ccc3c4c(nn3CCN(C)C)c3ccccc3n(c1=O)c24`, the TGI turned out to be 1.39 µM with MDA-MB-435; 4.07 µM with RPMI-8226 leukemia; 3.43 µM in the experiment on SK-OV-3 ovarian; 2.49 µM in the experiment on K-562 leukemia; 1.38 µM in the experiment with LOX IMVI melanoma; 2.89 µM in the experiment with OVCAR-5 ovarian. Also, the TGI with UACC-257 melanoma amounted to 3.24 µM; in the experiment on EKVX NSCLC, 0.112 µM; in the experiment on MDA-MB-231 breast, 1.96 µM; with SNB-19 CNS, 3.75 µM.

For the compound `Cc1cc(N=C2C=C(Nc3cc(C)on3)C(=O)c3ccccc32)no1`, the TGI in the experiment on MDA-MB-435 was 22.5 µM; with RPMI-8226 leukemia it was > 100 µM; in the experiment with SK-OV-3 ovarian, > 100 µM; with K-562 leukemia it was > 100 µM; in the experiment with LOX IMVI melanoma, > 61.5 µM; in the experiment with OVCAR-5 ovarian, > 100 µM. Further, the TGI with UACC-257 melanoma is 47 µM; in the experiment with EKVX NSCLC it was > 100 µM; in the experiment on MDA-MB-231 breast it was 28.7 µM; with SNB-19 CNS it was > 100 µM.

As to `O=C(O)C1SCCS1`, the TGI in the experiment with MDA-MB-435, in the experiment with RPMI-8226 leukemia, in the experiment with SK-OV-3 ovarian, with K-562 leukemia, in the experiment on LOX IMVI melanoma and with OVCAR-5 ovarian was > 100 µM in each case. Moreover, the TGI with UACC-257 melanoma, in the experiment on EKVX NSCLC, in the experiment with MDA-MB-231 breast and in the experiment with SNB-19 CNS was > 100 µM in each case.

On to `COC(=O)CCN(CCC(=O)OC)C1CC1`, for which the TGI in the experiment with MDA-MB-435, in the experiment with RPMI-8226 leukemia, in the experiment on SK-OV-3 ovarian, with K-562 leukemia, in the experiment with LOX IMVI melanoma and in the experiment on OVCAR-5 ovarian was > 100 µM throughout. The TGI in the experiment on UACC-257 melanoma, in the experiment on EKVX NSCLC, in the experiment with MDA-MB-231 breast and in the experiment with SNB-19 CNS was > 100 µM throughout.

Take `C/C(N=Nc1nc2ccccc2o1)=C1/C=CC=CN1O`: the TGI in the experiment on MDA-MB-435 is > 100 µM; in the experiment with RPMI-8226 leukemia, > 100 µM; with SK-OV-3 ovarian it was > 100 µM; in the experiment on K-562 leukemia, > 100 µM; with LOX IMVI melanoma it was > 100 µM; in the experiment on OVCAR-5 ovarian, 28.1 µM. Moreover, the TGI was > 100 µM with UACC-257 melanoma, 24.3 µM in the experiment on EKVX NSCLC, > 100 µM in the experiment with MDA-MB-231 breast and > 100 µM with SNB-19 CNS.

For the compound `NC(=O)NCCCC(NC(=O)OCCCCCn1ccc(=O)[nH]c1=O)C(=O)O` (stereo not given), the TGI with MDA-MB-435, with RPMI-8226 leukemia, in the experiment with SK-OV-3 ovarian, in the experiment on K-562 leukemia, in the experiment with LOX IMVI melanoma and in the experiment with OVCAR-5 ovarian was > 100 µM in each case. Besides, the TGI in the experiment with UACC-257 melanoma, with EKVX NSCLC, with MDA-MB-231 breast and in the experiment on SNB-19 CNS was > 100 µM each time.
